ChEMBL document CHEMBL1124945, “1-(substituted-benzyl)imidazole-2(3H)-thione inhibitors of dopamine beta-hydroxylase” (J Med Chem, 1990)

target: T1, Dopamine beta-hydroxylase (Rattus norvegicus, UniProt Q05754); assay: Inhibition of dopamine beta-hydroxylase (DbetaH) […]
T1 sequence (Q05754 whole entry): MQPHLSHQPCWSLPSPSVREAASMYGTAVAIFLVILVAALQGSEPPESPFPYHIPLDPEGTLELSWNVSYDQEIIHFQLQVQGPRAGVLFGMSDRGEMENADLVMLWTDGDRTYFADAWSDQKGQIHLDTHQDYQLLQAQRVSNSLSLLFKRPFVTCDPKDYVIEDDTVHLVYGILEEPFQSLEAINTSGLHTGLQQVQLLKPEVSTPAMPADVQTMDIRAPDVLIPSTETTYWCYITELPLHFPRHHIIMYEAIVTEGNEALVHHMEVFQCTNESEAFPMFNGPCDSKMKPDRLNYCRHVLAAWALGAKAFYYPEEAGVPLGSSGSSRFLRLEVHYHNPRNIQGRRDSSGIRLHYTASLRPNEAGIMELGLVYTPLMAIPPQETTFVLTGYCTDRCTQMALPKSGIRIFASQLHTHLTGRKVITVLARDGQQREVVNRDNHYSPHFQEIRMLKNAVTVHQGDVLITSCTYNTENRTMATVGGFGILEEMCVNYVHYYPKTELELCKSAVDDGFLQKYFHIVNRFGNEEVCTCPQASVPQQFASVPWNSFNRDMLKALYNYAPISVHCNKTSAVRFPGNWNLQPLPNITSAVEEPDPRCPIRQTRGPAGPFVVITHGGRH

Row | IC50 | SMILES
1 | 339 µM | Cc1ccccc1Cn1cc[nH]c1=S
2 | 46.8 µM | COc1c(Cl)cc(Cn2cc[nH]c2=S)cc1Cl
3 | 204 µM | COc1ccc(Cn2cc[nH]c2=S)cc1
4 | 69.2 µM | COc1ccc(Cn2cc[nH]c2=S)cc1C
5 | 0.0741 µM | Oc1c(F)cc(Cn2cc[nH]c2=S)cc1F
6 | 12 µM | S=c1[nH]ccn1Cc1cccc(Cl)c1
7 | 49 µM | Cc1cc(Cn2cc[nH]c2=S)ccc1O
8 | 28.2 µM | S=c1[nH]ccn1Cc1ccc(Cl)c(Cl)c1
9 | 155 µM | COc1cc(Cl)c(Cn2cc[nH]c2=S)c(Cl)c1
10 | 200 µM | FC(F)(F)c1ccc(Cn2cc[nH]c2=S)cc1
11 | 83.2 µM | COc1ccc(Cn2cc[nH]c2=S)cc1Br
12 | 120 µM | Oc1ccc(Cn2cc[nH]c2=S)cc1C(F)(F)F
13 | 0.676 µM | Oc1c(Cl)cc(Cn2cc[nH]c2=S)cc1Cl
14 | 12 µM | Oc1ccc(Cn2cc[nH]c2=S)cc1Br
15 | 97.7 µM | S=c1[nH]ccn1Cc1cc(Cl)ccc1Cl
16 | 52.5 µM | O=[N+]([O-])c1ccc(Cn2cc[nH]c2=S)cc1
17 | 5.62 µM | Fc1cccc(Cn2cc[nH]c2=S)c1
18 | 115 µM | S=c1[nH]ccn1Cc1ccc(Br)cc1
19 | 30.9 µM | O=[N+]([O-])c1cc(Cn2cc[nH]c2=S)ccc1O
20 | 158 µM | COc1cccc(Cn2cc[nH]c2=S)c1
21 | 52.5 µM | S=c1[nH]ccn1Cc1cccc(Cl)c1Cl
22 | 355 µM | COc1ccc(Cn2cc[nH]c2=S)cc1[N+](=O)[O-]
23 | 36.3 µM | COc1c(F)cc(Cn2cc[nH]c2=S)cc1F

Row | IC50 | SMILES
24 | 61.7 µM | Oc1c(F)c(F)c(Cn2cc[nH]c2=S)c(F)c1F
25 | 355 µM | S=c1[nH]ccn1Cc1ccccc1Cl
26 | 1.51 µM | Oc1ccc(Cn2cc[nH]c2=S)cc1F
27 | 501 µM | COc1cccc(OC)c1Cn1cc[nH]c1=S
28 | 339 µM | COc1ccc(Cn2cc[nH]c2=S)cc1OC
29 | 1000 µM | Cc1cccc(C)c1Cn1cc[nH]c1=S
30 | 102 µM | S=c1[nH]ccn1Cc1c(Cl)cc(Cl)cc1Cl
31 | 17 µM | S=c1[nH]ccn1Cc1ccc(Cl)cc1Cl
32 | 575 µM | Oc1ccccc1Cn1cc[nH]c1=S
33 | 174 µM | COc1ccc(Cn2cc[nH]c2=S)cc1C(F)(F)F
34 | 75.9 µM | Oc1cc(Cl)c(Cn2cc[nH]c2=S)c(Cl)c1
35 | 46.8 µM | Fc1ccc(Cn2cc[nH]c2=S)cc1
36 | 148 µM | Oc1cccc(Cn2cc[nH]c2=S)c1
37 | 2.19 µM | Oc1ccc(Cn2cc[nH]c2=S)cc1O
38 | 2 µM | Oc1ccc(Cn2cc[nH]c2=S)cc1Cl
39 | 74.1 µM | COc1ccccc1Cn1cc[nH]c1=S
40 | 2.4 µM | S=c1[nH]ccn1Cc1cc(Cl)cc(Cl)c1
41 | 74.1 µM | COc1ccc(Cn2cc[nH]c2=S)cc1F
42 | 95.5 µM | S=c1[nH]ccn1Cc1ccc(Cl)cc1
43 | 33.1 µM | S=c1[nH]ccn1Cc1ccccc1
44 | 148 µM | Cc1ccc(Cn2cc[nH]c2=S)cc1
45 | 708 µM | S=c1[nH]ccn1Cc1c(Cl)cccc1Cl
